Source: BindingDB's records for doi:10.1074/jbc.M114.573162 (German Institute of Human Nutrition Potsdam-Rehbruecke, 2014)

Each compound was assayed against T1, Olfactory receptor class A-like protein 1 (Zebrafish, UniProt A0A0R4IM31) (assay: Functional Calcium Imaging Assay). Details: pH 7.4.
T1 sequence (A0A0R4IM31 whole entry): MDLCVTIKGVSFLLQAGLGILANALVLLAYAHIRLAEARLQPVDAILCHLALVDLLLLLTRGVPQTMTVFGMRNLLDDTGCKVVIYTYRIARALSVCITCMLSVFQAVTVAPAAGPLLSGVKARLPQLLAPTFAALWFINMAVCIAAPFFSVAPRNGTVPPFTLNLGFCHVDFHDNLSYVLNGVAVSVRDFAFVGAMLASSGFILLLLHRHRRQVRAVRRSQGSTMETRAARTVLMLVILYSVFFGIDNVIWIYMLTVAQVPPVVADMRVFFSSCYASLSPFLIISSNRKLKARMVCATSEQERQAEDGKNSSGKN
Description: Briefly, HEK 293T cells stably expressing the G protein-chimera Gα16gust44 were seeded onto 96-well plates coated with 10 μg/ml of poly-D-lysine. The next day cells were transiently transfected with ORA1, ORA2, or human bitter taste receptor TAS2R16 constructs using Lipofectamine 2000 (Invitrogen). After 24 h the cells were washed with buffer C1 (130 mM NaCl, 5 mM KCl, 10 mM Hepes, pH 7.4, 2 mM CaCl2, 10 mM glucose), and loaded with the calcium-responsive dye Fluo-4 AM in the presence of 1 mM probenecide, an inhibitor of […]. To remove excessive fluorescence dye, cells were washed three times with buffer C1 and transferred into a fluorometric imaging plate reader (FLIPR, Molecular Devices) for measurement. Test substances were dissolved in C1 buffer and the changes in fluorescence after application of test substances were monitored.

Row | Structure (SMILES) | EC50 [µM]
1 | O=C(O)Cc1ccc(O)c(O)c1 [SMR000326727] | 22.8
2 | O=C(O)Cc1ccc2c(c1)OCO2 [3,4-Methylenedioxyphenylacetic acid] | 16
3 | O=C(O)Cc1ccccc1 [Phenylacetate, XIX] | 30.5
4 | O=C(O)Cc1ccc(O)cc1 [2-(4-hydroxyphenyl)acetic acid] | 1.9
5 | Cc1ccc(C(=O)CC(=O)O)cc1 [4-Toloylacetic acid] | 14.8
6 | COc1ccc(CC(=O)O)cc1 [4-Methoxyphenylacetic acid] | 16.5

The remaining compounds from weak to strong by EC50, led by results:

Row | EC50 [µM] | Structure (SMILES)
7 | 221 | CC(C(=O)O)c1ccc(O)cc1 (stereo not given) [Methyl-4-hydroxyphenylacetic acid]
8 | 192 | O=C(O)CCc1ccc(O)cc1 [3-(4-Hydroxyphenyl)-propionic acid]
9 | 91.7 | Nc1ccc(CC(=O)O)cc1 [4-Aminophenylacetic acid]
10 | 16.6 | O=C(O)Cc1ccc(Cl)cc1 [2-(4-chlorophenyl)acetic acid]
